According to PubChem BioAssay AID1963836 (Molecular Pharmacology Branch, DTP, NCI, 2024):

System: 857933-349-R-J2-PDC complex spheroid viability
Assay: Anticancer human tumor 857933-349-R-J2-PDC patient-derived colon adenocarcinoma cell line growth inhibition [POLQ]
Details: for IC50: curve of first compound; for viability, T/C: stronger effect = lower value; active = viability on the fitted dose curve at most 10% of control; inactive = the rest
Protocol: Multicellular complex tumor spheroid response to Polymerase (POL) inhibitors (novobiocin, ART-558, RP6685) in combination with a variety of drugs and investigational agents in selected tumor cell lines
The POL inhibitors (novobiocin, ART-558, and RP6685) were evaluated both individually and in combination with standard of care and investigational anticancer small molecules within a complex spheroid model of solid tumors. . Complex spheroids include a stromal component modeled by human endothelial cells (HUVEC) and fibroblasts modeled by human mesenchymal stem cells (MSCs). The concentration ranges selected for each drug and investigational agent were based upon clinically achievable concentrations if the clinical Cmax of the agent was known.
Compounds. The drugs and investigational agents: novobiocin (NSC847541), ART-558 (NSC835418), RP-6685 (NSC848927), peposertib (NSC802822), ceralasertib (NSC780249), elimusertib (NSC800525), camonsertib (NSC841442), AZD-1390 (NSC803789), olaparib (NSC753686), talazoparib (NSC767125), rucaparib (NSC756644), sotorasib (NSC818433), MRTX-1133 (NSC836407), SN-38 (NSC673596), topotecan (NSC609699), epotoside (NSC141540), doxorubicin (NSC123127), gemcitabine (NSC613327), 5-fluorouracil (NSC19893), paclitaxel (NSC125973), vemurafenib (NSC761431), MSA-2 (NSC828583), SN-011 (NSC837082), adavosertib (NSC754352), prexasertib (NSC758257), carboplatin (NSC241240) and oxaliplatin (NSC266046), were obtained from the National Cancer Institute (NCI) Developmental Therapeutics Program Chemical Repository (21). The FDA-approved anticancer drug set is available from the Developmental Therapeutics Program at https://dtp.cancer.gov/organization/dscb/obtaining/. […] The stock solutions were prepared in dimethyl sulfoxide (DMSO, Sigma-Aldrich, St. Louis, MO, cat. D2650), except for the platinum compounds which were prepared in saline (Quality Biological, Gaithersburg, MD, cat. 114-055-101), at 800-fold the tested concentration and stored at -70 degrees C prior to their use. All drugs and investigational agents were tested over a range starting from a high concentration at or near the clinical Cmax and decreasing in half-log increments. If the clinical Cmax for an agent had not been determined, the highest concentration tested was 10 microM, except for SN-38, which was tested at a high concentration of 1 microM.
Cell Culture. All cells were maintained in an incubator at 37 degrees C and 5% CO2 with 95% humidity. The PDC lines were cultured according to standard operating procedures established by the NCI PDMR (https://pdmr.cancer.gov). Table 3 of the manuscript, lists the cell lines along with the number of the three cell types plated to form the mct-spheroids and media for tumor cell growth. After thawing, all PDC lines, except 997537-175-T-J1-PDC and 415267-285-R-J2-PDC, were cultured in Matrigel-coated flasks prepared with a working solution of 1X Ham's F-12 nutrient mix, without supplementation (Thermo Fisher Scientific, cat. 11765054), 100 U/mL penicillin-streptomycin (Thermo Fisher Scientific, cat. 15140122), and 2.5% Matrigel (Corning Inc., Corning, NY, cat. 354248) for the first three passages. The two PDC lines 997537-175-T-J1-PDC and 415267-285-R-J2-PDC were cultured on uncoated flasks. The 857933-349-R-J2-PDC line was cultured in 6C/Colon 1B media containing advanced DMEM/F-12 (Thermo Fisher Scientific, cat. 12634028), 10 mM HEPES (Thermo Fisher Scientific, cat. 15630080), 1X GlutaMAX supplement (Thermo Fisher Scientific, cat. 35050061), 0.1 mg/mL primocin (InvivoGen, San Diego, CA, cat. ant-pm-2), 10% defined fetal bovine serum, heat inactivated (HyClone Laboratories Inc., Logan, UT, cat. SH30070.03HI), 50% L-WRN conditioned media (ATCC, cat. CRL-3276), 1.25 mM N-Acetyl-L-cysteine (Sigma-Aldrich, cat. A9165), 10 mM nicotinamide (Sigma-Aldrich, cat. N0636), 1X B-27 supplement (Thermo Fisher Scientific, cat. 17504044), 1X N-2 supplement (Thermo Fisher Scientific, cat. […]

[1] = second compound 0.0316 µM, first compound 0.0316 µM
[2] = second compound 0.0316 µM, first compound 0.1 µM
[3] = second compound 0.0316 µM, first compound 0.316 µM
[4] = second compound 0.0316 µM, first compound 1 µM
[5] = second compound 0.0316 µM, first compound 3.16 µM
[6] = second compound 0.0316 µM, first compound 10 µM
[7] = second compound 0.1 µM, first compound 0.0316 µM
[8] = second compound 0.1 µM, first compound 0.1 µM
[9] = second compound 0.1 µM, first compound 0.316 µM
[10] = second compound 0.1 µM, first compound 1 µM
[11] = second compound 0.1 µM, first compound 3.16 µM
[12] = second compound 0.1 µM, first compound 10 µM
[13] = second compound 0.316 µM, first compound 0.0316 µM
[14] = second compound 0.316 µM, first compound 0.1 µM
[15] = second compound 0.316 µM, first compound 0.316 µM
[16] = second compound 0.316 µM, first compound 1 µM
[17] = second compound 0.316 µM, first compound 3.16 µM
[18] = second compound 0.316 µM, first compound 10 µM
[19] = second compound 1 µM, first compound 0.0316 µM
[20] = second compound 1 µM, first compound 0.1 µM
[21] = second compound 1 µM, first compound 0.316 µM
[22] = second compound 1 µM, first compound 1 µM
[23] = second compound 1 µM, first compound 3.16 µM
[24] = second compound 1 µM, first compound 10 µM
[25] = second compound 3.16 µM, first compound 0.0316 µM
[26] = second compound 3.16 µM, first compound 0.1 µM
[27] = second compound 3.16 µM, first compound 0.316 µM
[28] = second compound 3.16 µM, first compound 1 µM
[29] = second compound 3.16 µM, first compound 3.16 µM
[30] = second compound 3.16 µM, first compound 10 µM
[31] = second compound 10 µM, first compound 0.0316 µM
[32] = second compound 10 µM, first compound 0.1 µM
[33] = second compound 10 µM, first compound 0.316 µM
[34] = second compound 10 µM, first compound 1 µM
[35] = second compound 10 µM, first compound 3.16 µM
[36] = second compound 10 µM, first compound 10 µM
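Also: spheroids exposed to compounds for seven days before readout.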

CCCS(=O)(=O)Nc1ccc(F)c(C(=O)c2c[nH]c3ncc(-c4ccc(Cl)cc4)cc23)c1F + Cc1cccc(N(C)C(=O)C2C(O)CCN2c2nc(C)cc(C(F)(F)F)c2C#N)c1
inactive: viability, T/C [1] 87.7% | viability, T/C [2] 104% | viability, T/C [3] 97% | viability, T/C [4] 99.3% | viability, T/C [5] 98.8% | viability, T/C [6] 28.1% | viability, T/C [7] 106% | viability, T/C [8] 105% | viability, T/C [9] 93.6% | viability, T/C [10] 94.5% | viability, T/C [11] 98.7% | viability, T/C [12] 19.1% | viability, T/C [13] 107% | viability, T/C [14] 99.6% | viability, T/C [15] 93.2% | viability, T/C [16] 95.5% | viability, T/C [17] 109% | viability, T/C [18] 24.2% | viability, T/C [19] 95.6% | viability, T/C [20] 111% | viability, T/C [21] 99.5% | viability, T/C [22] 91.3% | viability, T/C [23] 103% | viability, T/C [24] 23.6% | viability, T/C [25] 92.1% | viability, T/C [26] 96% | viability, T/C [27] 82.2% | viability, T/C [28] 100% | viability, T/C [29] 102% | viability, T/C [30] 25.2% | viability, T/C [31] 115% | viability, T/C [32] 99% | viability, T/C [33] 97% | viability, T/C [34] 99.9% | viability, T/C [35] 96.5% | viability, T/C [36] 22.3%
6.96 µM: IC50 (second compound 0.0316 µM)
6.8 µM: IC50 (second compound 0.316 µM)
6.73 µM: IC50 (second compound 1 µM)
6.62 µM: IC50 (second compound 3.16 µM)
6.4 µM: IC50 (second compound 0.1 µM)
6.51 µM: IC50 (second compound 10 µM)

COc1ccc([C@@H](O)c2cc(-c3ncnc4cc(N5CCOCC5)ccc34)c(F)cc2Cl)nn1 + Cc1cccc(N(C)C(=O)C2C(O)CCN2c2nc(C)cc(C(F)(F)F)c2C#N)c1
8.54 µM: IC50 (second compound 3.16 µM)
> 10 µM: IC50 (second compound 0.0316 µM) | IC50 (second compound 0.1 µM) | IC50 (second compound 0.316 µM) | IC50 (second compound 1 µM) | IC50 (second compound 10 µM)
inactive: viability, T/C [1] 118% | viability, T/C [2] 90.8% | viability, T/C [3] 88.6% | viability, T/C [4] 73.4% | viability, T/C [5] 71.6% | viability, T/C [6] 64.2% | viability, T/C [7] 91.8% | viability, T/C [8] 114% | viability, T/C [9] 91.1% | viability, T/C [10] 79% | viability, T/C [11] 72.8% | viability, T/C [12] 57.7% | viability, T/C [13] 110% | viability, T/C [14] 116% | viability, T/C [15] 83.6% | viability, T/C [16] 88.8% | viability, T/C [17] 93.7% | viability, T/C [18] 62.8% | viability, T/C [19] 91.9% | viability, T/C [20] 97.3% | viability, T/C [21] 119% | viability, T/C [22] 63.8% | viability, T/C [23] 91.6% | viability, T/C [24] 56.8% | viability, T/C [25] 87.1% | viability, T/C [26] 87.4% | viability, T/C [27] 95.5% | viability, T/C [28] 71.5% | viability, T/C [29] 85.6% | viability, T/C [30] 44.4% | viability, T/C [31] 97.9% | viability, T/C [32] 97.5% | viability, T/C [33] 76.3% | viability, T/C [34] 61.6% | viability, T/C [35] 71.9% | viability, T/C [36] 49.2%

COc1cccc2c1C(=O)c1c(O)c3c(c(O)c1C2=O)CC(O)(C(=O)CO)CC3OC1CC(N)C(O)C(C)O1 (stereo unspecified) + Cc1cccc(N(C)C(=O)C2C(O)CCN2c2nc(C)cc(C(F)(F)F)c2C#N)c1
0.304 µM: IC50 (second compound 0.316 µM)
inactive: viability, T/C [1] 86.9% | viability, T/C [2] 62.2% | viability, T/C [3] 47.1% | viability, T/C [4] 17% | viability, T/C [7] 76.9% | viability, T/C [8] 79.5% | viability, T/C [9] 48.4% | viability, T/C [10] 12.9% | viability, T/C [13] 70.4% | viability, T/C [14] 79.1% | viability, T/C [15] 46.7% | viability, T/C [16] 14% | viability, T/C [19] 74.1% | viability, T/C [20] 60.1% | viability, T/C [21] 42.3% | viability, T/C [25] 86.2% | viability, T/C [26] 66.4% | viability, T/C [27] 40.2% | viability, T/C [28] 7.89% | viability, T/C [31] 65.9% | viability, T/C [32] 64.1% | viability, T/C [33] 35.7%
0.199 µM: IC50 (second compound 3.16 µM)
0.176 µM: IC50 (second compound 10 µM)
0.218 µM: IC50 (second compound 0.0316 µM)
0.315 µM: IC50 (second compound 0.1 µM)
0.196 µM: IC50 (second compound 1 µM)
active: viability, T/C [5] 0.52% | viability, T/C [6] 0.28% | viability, T/C [11] 0.41% | viability, T/C [12] 0.35% | viability, T/C [17] 0.45% | viability, T/C [18] 0.46% | viability, T/C [22] 6.42% | viability, T/C [23] 0.28% | viability, T/C [24] 0.34% | viability, T/C [29] 0.38% | viability, T/C [30] 0.47% | viability, T/C [34] 4.82% | viability, T/C [35] 0.36% | viability, T/C [36] 0.46%
